Assay results taken from US20180325889A1, “IMMUNOREGULATORY AGENTS” (FLEXUS BIOSCIENCES, INC., priority 2014, published 2018).

What follows are molecules tested against T1, human IDO1/HEK293 cells (Homo sapiens, UniProt P14902) (assay: HEK Human IDO-1 cell-based IDO inhibition assay (kynurenine production)). Conditions: HEK293 cells stably expressing human IDO1, 20 hours incubation, absorbance at 490 nm; read-out: HEK Human IDO-1 Bio Activity (IDO IC50).
T1 construct: expressed in transfected cells
Method in brief: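 Stopped with 0.2% TCA, 50 °C 30 min; supernatant mixed with 0.2% Ehrlich reagent, 30 min RT, kynurenine read as absorbance at 490 nm.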

T1 sequence (P14902 whole entry): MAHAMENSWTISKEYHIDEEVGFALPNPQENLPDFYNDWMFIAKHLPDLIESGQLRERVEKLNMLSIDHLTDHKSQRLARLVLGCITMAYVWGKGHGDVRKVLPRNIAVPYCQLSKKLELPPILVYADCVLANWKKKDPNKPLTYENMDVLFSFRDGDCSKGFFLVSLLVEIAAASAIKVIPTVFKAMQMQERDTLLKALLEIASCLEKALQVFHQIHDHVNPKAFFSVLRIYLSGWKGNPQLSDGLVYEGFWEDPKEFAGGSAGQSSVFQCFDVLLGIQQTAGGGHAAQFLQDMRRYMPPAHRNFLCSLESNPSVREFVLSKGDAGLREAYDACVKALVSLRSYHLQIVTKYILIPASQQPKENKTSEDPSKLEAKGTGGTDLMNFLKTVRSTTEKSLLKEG

| IC50 [µM] | Compound |
| --- | --- |
| < 0.05 | CCC(NC(=O)c1ccc(Cl)cc1)C1CCC(c2ccnc3ccc(F)cc23)CC1 (single isomer, unassigned) [Example 164b, 4-Chloro-N-(1-(4-(6-fluoroquinolin-4-yl)cyclohexyl)propyl)benzamide] |
| < 0.05 | COc1ccccc1C(=O)N[C@H](C)[C@H]1CC[C@@H](c2ccnc3ccc(F)cc32)CC1 [Example 52, N-((R)-1-((1s,4S)-4-(6-fluoroquinolin-4-yl)cyclohexyl)ethyl)-2-methoxybenzamide] |
| < 0.05 | C[C@@H](NC(=O)c1ccc(-c2cnccn2)cc1)[C@H]1CC[C@@H](c2ccnc3ccc(F)cc32)CC1 [Example 233, N-((R)-1-((1s,4S)-4-(6-fluoroquinolin-4-yl)cyclohexyl)ethyl)-4-(pyrazin-2-yl)benzamide] |
| < 0.25 | CC(NC(=O)c1ccc(Cl)cc1)C1CCC(c2ccnc3ccnn23)CC1 (centres unmarked) [Example 197, 4-chloro-N-(1-(4-(pyrazolo[1,5-a]pyrimidin-7-yl)cyclohexyl)ethyl)benzamide] |
| < 2 | COc1ccc(S(=O)(=O)N[C@H](C)[C@H]2CC[C@@H](c3ccnc4ccc(F)cc43)CC2)cc1 [Example 46, N-((R)-1-((1s,4S)-4-(6-fluoroquinolin-4-yl)cyclohexyl)ethyl)-4-methoxybenzenesulfonamide] |
| < 0.05 | Cc1ccccc1C(=O)N[C@H](C)[C@H]1CC[C@@H](c2ccnc3ccc(F)cc32)CC1 [Example 49, N-((R)-1-((1s,4S)-4-(6-fluoroquinolin-4-yl)cyclohexyl)ethyl)-2-methylbenzamide] |
| < 0.25 | C[C@@H](NC(=O)c1ccc(-c2ncnn2C)cc1)[C@H]1CC[C@@H](c2ccnc3ccc(F)cc32)CC1 [Example 251, N-((R)-1-((1s,4S)-4-(6-fluoroquinolin-4-yl)cyclohexyl)ethyl)-4-(1-methyl-1H-1,2,4-triazol-5-yl)benzamide] |
| < 0.05 | COc1nccc(-c2ccc(C(=O)N[C@H](C)[C@H]3CC[C@@H](c4ccnc5ccc(F)cc54)CC3)cc2)n1 [Example 236, N-((R)-1-((1s,4S)-4-(6-fluoroquinolin-4-yl)cyclohexyl)ethyl)-4-(2-methoxypyrimidin-4-yl)benzamide] |
| < 0.05 | Cc1ccc(C(=O)N[C@H](C)[C@H]2CC[C@@H](c3ccnc4ccc(F)cc43)CC2)cc1 [Example 51, N-((R)-1-((1s,4S)-4-(6-fluoroquinolin-4-yl)cyclohexyl)ethyl)-4-methylbenzamide] |
| < 2 | O=C(Nc1ccc(Cl)cc1F)NC1CCN(c2ccnc3ccc(F)cc23)CC1 [Example 92, 1-(4-Chloro-2-fluorophenyl)-3-(1-(6-fluoroquinolin-4-yl)piperidin-4-yl)urea] |
| < 0.05 | CCOc1ccc(C(=O)N[C@H](C)[C@H]2CC[C@@H](c3ccnc4ccc(F)cc43)CC2)nc1 [Example 163, 5-Ethoxy-N—((R)-1-(cis-4-(6-fluoroquinolin-4-yl)cyclohexyl)ethyl)picolinamide] |
| < 0.05 | C[C@@H](NC(=O)c1ccccc1-c1ccccc1)[C@H]1CC[C@@H](c2ccnc3ccc(F)cc32)CC1 [Example 69, N-((R)-1-((1s,4S)-4-(6-fluoroquinolin-4-yl)cyclohexyl)ethyl)-[1,1′-biphenyl]-2-carboxamide] |
| < 0.25 | CC(NC(=O)c1ccc(Cl)cc1)C1CCC(c2ccc(C(F)(F)F)nc2)CC1 (single isomer, unassigned) [Example 220, 4-chloro-N-(1-(4-(6-(trifluoromethyl)pyridin-3-yl)cyclohexyl)ethyl)benzamide] |
| < 2 | CCC(NC(=O)c1ccc(Cl)cc1)C1CCC(c2cccc(C(F)F)n2)CC1 (single isomer, unassigned) [Example 231d, 4-chloro-N-(1-(4-(6-(difluoromethyl)pyridin-2-yl)cyclohexyl)propyl)benzamide] |
| < 0.05 | CCC(NC(=O)c1ccc(Cl)cc1)C1CCC(c2ccnc3ccc(F)cc23)CC1 (single isomer, unassigned) [Example 164d, 4-Chloro-N-(1-(4-(6-fluoroquinolin-4-yl)cyclohexyl)propyl)benzamide] |
| < 0.25 | Fc1ccc2nccc([C@H]3CC[C@H](NCc4ccccc4)CC3)c2c1 [Example 130, trans-N-Benzyl-4-(6-fluoroquinolin-4-yl)cyclohexanamine] |
| < 0.05 | CC(NC(=O)c1ccc(Cl)cc1)C1CCC(c2ccnc(C(F)(F)F)c2)CC1 (single isomer, unassigned) [Example 213, 4-chloro-N-(1-(4-(2-(trifluoromethyl)pyridin-4-yl)cyclohexyl)ethyl)benzamide] |
| < 0.05 | C[C@@H](NC(=O)c1ccccn1)[C@H]1CC[C@@H](c2ccnc3ccc(F)cc32)CC1 [Example 67, N-((R)-1-((1s,4S)-4-(6-fluoroquinolin-4-yl)cyclohexyl)ethyl)picolinamide] |
| < 2 | Cc1cc(C2CCC(C(C)NC(=O)c3ccc(Cl)cc3)CC2)ccn1 (single isomer, unassigned) [Example 157c, 4-Chloro-N-(1-(4-(2-methylpyridin-4-yl)cyclohexyl)ethyl) Benzamide] |

| IC50 [µM] | Compound |
| --- | --- |
| < 2 | C[C@@H](NS(=O)(=O)c1ccccc1Cl)[C@H]1CC[C@@H](c2ccnc3ccc(F)cc32)CC1 [Example 42, 2-chloro-N-((R)-1-((1s,4S)-4-(6-fluoroquinolin-4-yl)cyclohexyl)ethyl)benzenesulfonamide] |
| < 0.05 | C[C@@H](NC(=O)c1ccc(C(F)(F)F)cc1)[C@H]1CC[C@@H](c2ccnc3ccc(F)cc32)CC1 [Example 249, N-((R)-1-((1s,4S)-4-(6-fluoroquinolin-4-yl)cyclohexyl)ethyl)-4-(trifluoromethyl)benzamide] |
| < 0.25 | Cc1ccc(NC(=O)NC2CCN(c3ccnc4ccc(F)cc34)CC2)cc1 [Example 91, 1-(1-(6-Fluoroquinolin-4-yl)piperidin-4-yl)-3-(p-tolyl)urea] |
| < 0.05 | CC[C@H](NC(=O)c1ccc(Cl)cc1)[C@H]1CC[C@H](c2cnc3ccccc3c2)CC1 (single isomer, unassigned) [Example 203d] |
| < 0.05 | CCC(NC(=O)c1ccc(C#N)cc1)C1CCC(c2ccnc3ccc(F)cc23)CC1 (single isomer, unassigned) [Example 165c, 4-Cyano-N-(1-(4-(6-fluoroquinolin-4-yl)cyclohexyl)propyl)benzamide] |
| < 0.05 | Cc1c(C2CCC(C(C)NC(=O)c3ccc(-c4ccccc4)cc3)CC2)ccnc1F (centres unmarked) [Example 221, N-(1-(4-(2-fluoro-3-methylpyridin-4-yl)cyclohexyl)ethyl)-[1,1′-biphenyl]-4-carboxamide] |
| < 2 | CC(C(=O)N[C@H]1CC[C@@H](c2ccnc3ccc(F)cc32)CC1)c1ccc(Cl)cc1 (stereo partly drawn) [Example 148, 2-(4-chlorophenyl)-N-(cis-4-(6-fluoroquinolin-4-yl)cyclohexyl)propanamide] |
| < 0.25 | CC(NC(=O)c1ccc(Cl)cc1)C1CCC(c2ccc(C(F)(F)F)nc2)CC1 (single isomer, unassigned) [Example 219, 4-chloro-N-(1-(4-(6-(trifluoromethyl)pyridin-3-yl)cyclohexyl)ethyl)benzamide] |
| < 0.25 | Cc1cc(C2CCC(C(C)NC(=O)c3ccc(Cl)cc3)CC2)ccn1 (centres unmarked) [Example 157a, 4-Chloro-N-(1-(4-(2-methylpyridin-4-yl)cyclohexyl)ethyl)benzamide] |
| < 2 | O=C(N[C@H]1CC[C@H](c2ccnc3ccc(F)cc32)CC1)c1ccc(Cl)cc1 [Example 146, 4-chloro-N-(trans-4-(6-fluoroquinolin-4-yl)cyclohexyl)benzamide] |
| < 0.05 | Cc1nccc(O[C@H]2CC[C@H](C(C)NC(=O)c3ccc(Cl)cc3)CC2)c1Cl (mixture of isomers) [Example 207, rac-4-chloro-N-(1-((trans)-4-((3-chloro-2-methylpyridin-4-yl)oxy)cyclohexyl)ethyl)benzamide] |
| < 0.05 | C[C@@H](NC(=O)c1ccc(F)cc1)[C@H]1CC[C@@H](c2ccnc3ccc(F)cc32)CC1 [Example 60, 4-fluoro-N-((R)-1-((1s,4S)-4-(6-fluoroquinolin-4-yl)cyclohexyl)ethyl)benzamide] |
| < 0.05 | Cc1c(C2CCC(C(C)NC(=O)c3ccc(Cl)cc3)CC2)ccnc1F (centres unmarked) [Example 158a, 4-chloro-N-(1-(4-(2-fluoro-3-methylpyridin-4-yl)cyclohexyl)ethyl)benzamide] |
| < 0.25 | O=C(Nc1ccc(Cl)cc1)[C@H]1CC[C@H](c2ccnc3ccc(F)cc32)CC1 [Example 75, (trans)-N-(4-Chlorophenyl)-4-(6-fluoroquinolin-4-yl)cyclohexanecarboxamide] |
| < 0.05 | COc1ccc(-c2ccc(C(=O)N[C@H](C)[C@H]3CC[C@@H](c4ccnc5ccc(F)cc54)CC3)cc2)cn1 [Example 245, N-((R)-1-((1s,4S)-4-(6-fluoroquinolin-4-yl)cyclohexyl)ethyl)-4-(6-methoxypyridin-3-yl)benzamide] |
| < 2 | O=C(O)Cc1ccc(CN[C@H]2CC[C@H](c3ccnc4ccc(F)cc43)CC2)cc1 [Example 139, 2-(4-(((trans-4-(6-Fluoroquinolin-4-yl)cyclohexyl)amino)methyl)phenyl)acetic acid] |
| < 2 | CCC(NC(=O)c1ccc(Cl)cc1)[C@H]1CC[C@H](Oc2ccnc3c(C(F)(F)F)cccc23)CC1 (stereo partly drawn) [Example 72, 4-Chloro-N-(1-((trans)-4-((8-(trifluoromethyl)quinolin-4-yl)oxy)cyclohexyl)propyl)benzamide] |
| < 0.05 | Cc1cnc(-c2ccc(C(=O)N[C@H](C)[C@H]3CC[C@@H](c4ccnc5ccc(F)cc54)CC3)cc2)s1 [Example 252, N-((R)-1-((1s,4S)-4-(6-fluoroquinolin-4-yl)cyclohexyl)ethyl)-4-(5-methylthiazol-2-yl)benzamide] |
| < 2 | CCC(NC(=O)c1ccc(Cl)cc1)C1CCC(c2cccc(C(F)F)n2)CC1 (single isomer, unassigned) [Example 231b, 4-chloro-N-(1-(4-(6-(difluoromethyl)pyridin-2-yl)cyclohexyl)propyl)benzamide] |
